# Source: patent publication US7858647B2, “N-[1,3,4]-thiadiazol-2-yl-benzene sulfonamides, pharmaceutical compositions thereof and methods for their therapeutic use” (Sanofi-Aventis, priority 2005, dated 2010)
# Molecular target: T1, human PPARdelta (Homo sapiens, UniProt Q03181)
# T1 construct: amino acids S139-Y441; expressed in transfected cells
# T1 sequence (Q03181 139-441): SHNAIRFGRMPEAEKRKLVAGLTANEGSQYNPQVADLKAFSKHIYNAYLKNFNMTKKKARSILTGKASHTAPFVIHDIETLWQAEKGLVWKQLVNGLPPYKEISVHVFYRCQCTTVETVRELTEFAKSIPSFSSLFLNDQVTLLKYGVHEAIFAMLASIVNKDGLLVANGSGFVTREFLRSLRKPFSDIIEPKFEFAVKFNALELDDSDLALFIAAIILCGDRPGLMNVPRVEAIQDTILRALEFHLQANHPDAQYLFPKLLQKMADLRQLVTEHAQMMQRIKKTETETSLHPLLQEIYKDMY
# Assay: Cellular PPARdelta assay (luciferase reporter, stably transfected HEK cell line)
# Type: cell-based
# Details: GR-GAL4-humanPPARdelta-LBD
# Experimental: The activity of PPARalpha agonists is determined in a 3-day assay which is described below:
# The PPARalpha reporter cell line is cultivated to 80% confluence in DMEM (#41965-039, Invitrogen) which is mixed with the following additions: 10% cs-FCS (fetal calf serum; #SH-30068.03, Hyclone), 0.5 mg/ml zeocin (#R250-01, Invitrogen), 0.5 mg/ml G418 (#10131-027, Invitrogen), 1% penicillin-streptomycin solution (#15140-122, Invitrogen) and 2 mM L-glutamine (#25030-024, Invitrogen). The cultivation takes place in standard cell culture bottles (#353112, Becton Dickinson) in a cell culture incubator at 37° C. in the presence of 5% CO2. The 80%-confluent cells are washed once with 15 ml of PBS (#14190-094, Invitrogen), treated with 3 ml of trypsin solution (#25300-054, Invitrogen) at 37° C. for 2 min, taken up in 5 ml of the DMEM described and counted in a cell counter. After dilution to 500.000 cells/ml, 35,000 cells are seeded in each well of a 96 well microtiter plate with a clear plastic base (#3610, Corning Costar). The plates are incubated in the cell culture incubator at 37° C. and 5% CO2 for 24 h.
# PPARalpha Agonists to be Tested are Dissolved in DMSO in a Concentration of 10 mM. This stock solution is diluted in DMEM (#41965-039, Invitrogen) which is mixed with 5% cs-FCS (#SH-30068.03, Hyclone), 2 mM L-glutamine (#25030-024, Invitrogen) and the previously described antibiotics (zeocin, G418, penicillin and streptomycin). Test substances are tested in 11 different concentrations in the range from 10 μM to 100 pM.
# The medium of the PPARalpha reporter cell line seeded on day 1 is completely removed by aspiration, and the test substances diluted in medium are immediately added to the cells. The dilution and addition of the substances is carried out by a robot (Beckman FX). The final volume of the test substances diluted in medium is 100 μl per well of a 96 well microtiter plate. The DMSO concentration in the assay is less than 0.1% v/v in order to avoid cytotoxic effects of the solvent.
# The assay plates are incubated in an incubator at 37° C. and 5% CO2 for 24 h.
# The PPARalpha reporter cells treated with the test substances are removed from the incubator, and the medium is aspirated off. The cells are lyzed by pipetting 50 μl of Bright Glo reagent (from Promega) into each well of a 96 well microtiter plate. After incubation at room temperature in the dark for 10 minutes, the microtiter plates are measured in the luminometer (Trilux from Wallac). The measuring time for each well of a microtiter plate is 1 sec.
# The raw data from the luminometer are transferred into a Microsoft Excel file. Dose-effect plots and EC50 values of PPAR agonists are calculated using the XL.Fit program as specified by the manufacturer (IDBS).
# The potency of substances which bind to human PPARdelta and activate it in an agonistic manner is analyzed using a stably transfected HEK cell line (HEK=human embryo kidney) which is referred to here as PPARdelta reporter cell line. In analogy to the assay described for PPARalpha, the PPARdelta reporter cell line also contains two genetic elements, a luciferase reporter element (pdeltaM-GAL4-Luc-Zeo) and a PPARdelta fusion protein (GR-GAL4-humanPPARdelta-LBD) which mediates expression of the luciferase reporter element depending on a PPARdelta ligand. The stably and constitutively expressed fusion protein GR-GAL4-humanPPARdelta-LBD binds in the cell nucleus of the PPARdelta reporter cell line via the GAL4 protein portion to the GAL4 DNA binding motifs 5′-upstream of the luciferase reporter element which is stably integrated in the genome of the cell line. There is only little expression of the luciferase reporter gene in the absence of a PPARdelta ligand if fatty acid-depleted fetal calf serum (cs-FCS) is used in the assay. PPARdelta ligands bind and activate the PPARdelta fusion protein and thereby stimulate expression of the luciferase reporter gene. […]
row,Compound,EC50
1,"CCOc1cc(C(F)(F)F)ccc1C(=O)NCC(C)c1ccc(S(=O)(=O)Nc2nnc(C(C)C)s2)cc1 (racemic) [Example 43, 2-Ethoxy-N-{2-[4-(5-isopropyl-[1,3,4]thiadiazol-2-ylsulfamoyl)-phenyl]-propyl}-4-trifluoromethyl-benzamide]",20 nM
2,"CCOc1cc(C(F)(F)F)ccc1C(=O)NCC(C)c1ccc(S(=O)(=O)Nc2nnc(C(C)C)s2)cc1 (single isomer, unassigned) [Example 43a]",40 nM
3,"CCOc1cc(C(F)(F)F)ccc1C(=O)NCC(C)c1ccc(S(=O)(=O)Nc2nnc(C(C)C)s2)cc1 (single isomer, unassigned) [Example 43b]",20 nM
4,"CCOc1cc(C(F)(F)F)ccc1C(=O)NCC(CC)c1ccc(S(=O)(=O)Nc2nnc(C(C)C)s2)cc1 (single isomer, unassigned) [Example 44a]",40 nM
5,"CCOc1cc(C(F)(F)F)ccc1C(=O)NCC(CC)c1ccc(S(=O)(=O)Nc2nnc(C(C)C)s2)cc1 (single isomer, unassigned) [Example 44b]",10 nM
6,"COc1cc(C(F)(F)F)ccc1C(=O)NCCc1ccc(S(=O)(=O)Nc2nnc(C(C)C)s2)cc1 [Example 1, N-{2-[4-(5-Isopropyl-[1,3,4]thiadiazol-2-ylsulfamoyl)-phenyl]-ethyl}-2-methoxy-4-trifluoromethyl-benzamide]",110 nM
7,"COc1ccc(C(C)(C)C)cc1C(=O)NCCc1ccc(S(=O)(=O)Nc2nnc(C(C)C)s2)cc1 [Example 2, 5-tert-Butyl-N-{2-[4-(5-isopropyl-[1,3,4]thiadiazol-2-ylsulfamoyl)-phenyl]-ethyl}-2-methoxy-benzamide]",440 nM
8,"COc1ccc(C(=O)NCCc2ccc(S(=O)(=O)Nc3nnc(C(C)C)s3)cc2)c(OC)n1 [Example 5, N-{2-[4-(5-Isopropyl-[1,3,4]thiadiazol-2-ylsulfamoyl)-phenyl]-ethyl}-2,6-dimethoxy-nicotinamide]",1100 nM
9,"CC(C)c1nnc(NS(=O)(=O)c2ccc(CNC(=O)c3ccc(C(F)(F)F)cc3)cc2)s1 [Example 24, N-[4-(5-Isopropyl-[1,3,4]thiadiazol-2-ylsulfamoyl)-benzyl]-4-trifluoromethyl-benzamide]",760 nM
10,"Cc1ccc(Cl)cc1C(=O)NCCc1ccc(S(=O)(=O)Nc2nnc(-c3ccccc3)s2)cc1 [Example 32, 5-Chloro-2-methyl-N-{2-[4-(5-phenyl-[1,3,4]thiadiazol-2-ylsulfamoyl)-phenyl]-ethyl}-benzamide]",3610 nM
11,"CC(C)(C)c1nnc(NS(=O)(=O)c2ccc(CCNC(=O)c3cc(Cl)ccc3Cl)cc2)s1 [Example 35, N-{2-[4-(5-tert-Butyl-[1,3,4]thiadiazol-2-ylsulfamoyl)-phenyl]-ethyl}-2,5-dichloro-benzamide]",2800 nM
12,"Cc1cc(Br)c(C(=O)NCCc2ccc(S(=O)(=O)Nc3nnc(C(C)C)s3)cc2)s1 [Example 47, 3-Bromo-5-methyl-thiophene-2-carboxylic acid {2-[4-(5-isopropyl-[1,3,4]thiadiazol-2-ylsulfamoyl)-phenyl]-ethyl}-amide]",60 nM
